Tests used:
HFD-induced AD mice [1] = assay: Immunofluorescence staining of brain tissue of HFD-induced AD mice; format: in vivo
Source text: (§1) In experiments with the HFD-induced AD mouse model, a total of 60 Institute of Cancer Research (ICR) male mice aged 4 weeks from Zhejiang Academy of Medical Sciences (Hangzhou, China) were used for animal experiments (permit number: ZJU20230121). The animals were provided free access to a chow diet and water. […] The HFD and normal diet were alternated every two days to maintain freshness. Weekly measurements were taken for water intake, food intake, and body weight. In the eighteenth week, the mice underwent Y-maze and NOR tests. The Morris water maze test was conducted during the nineteenth week. After confirming the successful establishment of the AD model characterized by cognitive impairment, oral administration of treatments commenced. […] Each group had 10 mice.
At the end of animal experiments, three mice in each group were taken for heart perfusion with cold PBS and 4% paraformaldehyde. After that, the brains of mice were fixed with 4% paraformaldehyde for 24 h and gradually dehydrated with 15% and 30% sucrose solutions for 48 h, respectively. The fixed and embedded brain sample was placed in a cryostat and cut into 20 µm thick slices with a cryostat (Thermo Fisher, Waltham, MA, USA), and brain slices in the hippocampus and cortex were collected. Finally, the brain slices were placed in antifreeze (glycerol/ethylene/PBS = 3:3:4) and kept in a refrigerator at −30 °C until immunostaining. The brain slices were fixed on a glass slide and hydrated with PBS for 5 min. Then, blocking buffer was added to the brain slices and incubated at room temperature for 1 h. Brain slices were washed twice with PBS and incubated with anti-NeuN, anti-BrdU, anti-Iba1, anti-GFAP, anti-INOS, anti-APP, or anti-p-Tau at 4 °C for 24 h, respectively. Subsequently, the brain slices were incubated with secondary antibody (goat anti-rabbit IgG H&L (Alexa Fluor® 488) or rabbit anti-mouse IgG (Cy3 conjugate)) at room temperature for 2 h after washing with PBS three times. Finally, a cover glass was used to lightly cover the slices stained with DAPI. […] Biomarker proteins in the cerebral cortex and hippocampus were digitized by Image J software (National Institutes of Health, Bethesda, MD, USA).

HFD-induced AD mice [2] = assay: Neurogenesis: NeuN/BrdU double staining in HFD-induced AD mice; format: in vivo; settings: 5 mg/kg, vs HFD-only
Procedure: In order to investigate the effect of TBG096 on promoting neuronal regeneration, animal experiments were carried out according to the method previously reported. Fifteen 4-week-old ICR male mice purchased from Zhejiang Academy of Medical Sciences (Hangzhou, China) were randomly divided into three groups, namely the (i) normal control group, (ii) HFD group, and (iii) HFD + TBG096 5 mg/kg group, and given a normal diet or high-fat diet for two months to construct the AD mouse model, respectively. After confirming the successful construction of the AD model, TBG096 was administered once a day at a dose of 5 mg/kg for 1 month, and soybean oil was used as a vehicle. BrdU was then injected into the mice at a dose of 100 mg/kg in four injections over two days, each 12 h apart. Administration of TBG096 was continued for 28 days. At the end of animal experiments, the mice were anesthetized and cardiac […]. The brains of mice were taken, fixed, and sectioned, and immunostaining was performed with NeuN and BrdU antibodies.
At the end of animal experiments, three mice in each group were taken for heart perfusion with cold PBS and 4% paraformaldehyde. After that, the brains of mice were fixed with 4% paraformaldehyde for 24 h and gradually dehydrated with 15% and 30% sucrose solutions for 48 h, respectively. […]

[3] = test system: Hsc70, LAMP2A, APP, PKM2, and HK2 proteins; assay: Western blot of CMA proteins in PC12 cells (inhibitor experiment); format: cell-based; settings: TBG096 1 µM, 4 h, vs control
Procedure: In the inhibitor experiment of NGF-mimic activity, approximately 5 × 10^4 PC12 cells were seeded into each well of a 24-well plate and incubated for 24 h. After that, the medium in each well was replaced with 500 μL of serum-free DMEM or the serum-free DMEM containing VER155008, the inhibitor of Hsc70 protein, incubated in a CO2 incubator for 30 min. Subsequently, 500 μL of serum-free DMEM containing different samples was added and cultured, respectively. The PC12 cells with neurite outgrowth were recorded after 48 h. For the Western blot analysis, the experiment included five groups, namely the control (C) group, the NGF (40 ng/mL) group, the TBG096 (1 µM) group, the VER155008 (3 µM) group, and the VER155008 (3 µM) + TBG096 (1 µM) group. Afterwards, approximately 2 × 10^6 cells per dish were seeded into ten 6 cm Petri dishes with 5 mL of DMEM medium and incubated for 24 h. After giving different treatments with samples, the cells continued to culture for 4 h. Protein extraction was conducted to prepare for the subsequent Western blot analysis.
Approximately 50 mg of cerebral cortex from brain tissues was homogenized in RIPA lysis buffer containing 1% protease inhibitor and 1% phosphatase inhibitor. Then, the sample was centrifuged at 12,000 rpm at 4 °C for 10 min, and the supernatant was transferred to a new tube. Protein concentrations were determined using the BCA kit, and 30 µg of protein from each sample was denatured by heating in water at 100 °C for 10 min. Subsequently, approximately 30 µg of protein from each sample was loaded into each well. After conducting gel electrophoresis at 80 V for 15 min and then at 120 V for 60 min, the proteins were transferred to the polyvinylidene fluoride (PVDF) membrane for 90 min. Then, the PVDF membrane was blocked with 5% skimmed milk at room temperature for 60 min. The membrane was incubated with a diluted primary antibody at 4 °C overnight. After washing the membrane three times with TBST buffer (1× TBS buffer containing 0.05% (v/v) tween 20), it was incubated with the secondary antibody for 1 h at room temperature. Finally, the strip was developed using chemiluminescence ECL reagent, and the blot density was quantified with ImageJ (National Institutes of Health, Bethesda, MD, USA).

PC12 cells = assay: EdU cell proliferation in PC12 cells (inhibitor experiment); format: cell-based; settings: 24 h
Procedure: In the inhibitor experiment of EdU cell proliferation activity, PC12 cells were seeded into each well of a 24-well plate as above for 24 h. Then, the medium in each well was replaced with 500 μL of serum-free […] containing VER155008 (inhibitor of Hsc70, 3 µM), or NH4Cl (inhibitor of lysosome, 250 µM) for 30 min according to the literature, and 500 μL of serum-free DMEM containing different samples was added and cultured for 24 h, respectively. After that, PC12 cells were treated with EdU for 2 h according to the operation steps of the BeyoClick™ EdU-488 cell proliferation detection kit (#C0071S, Beyotime Biotechnology, Shanghai, China). After cell labeling, the supernatant was removed. Then, PC12 cells were fixed, washed, and blocked, and the click reaction solution was added at room temperature for 30 min. After that, DAPI staining was performed for 10 min. Finally, PC12 cells were detected by fluorescence microscope (Olympus IX53, Tokyo, Japan).

gut microbiota = assay: Gut microbiota analysis in HFD-induced AD mice; format: in vivo; settings: Met 140 mg/kg
Source text: as §1

## O=C(SCCCCCCSCCCC(F)(F)F)c1cccc(O)c1O [TBG096]
HFD-induced AD mice [1]; immunofluorescence
  APP and phosphorylation Tau protein in the hippocampus: reduction
HFD-induced AD mice [1]; vs HFD-only
  Iba1, GFAP, INOS markers (activated microglia, astrocytes, M1 macrophages) in the hippocampus: significantly reduced
HFD-induced AD mice [1]; vs HFD-only group
  number of mature neurons (NeuN) in the cerebral cortex: increased numbers of mature neurons
HFD-induced AD mice [2]
  number of NeuN+ and BrdU+ neurons in the cerebral cortex: increased numbers
  number of newborn neurons in the hippocampus: elevated
[3]
  HK2 protein expression: significantly decreased
[3]; VER155008 3 µM
  APP protein expression: significantly decreased
  Hsc70 protein level: significantly increased
  LAMP2A protein level: significantly increased
  PKM2 protein expression: significantly decreased
PC12 cells
  EdU cell proliferation activity: promoting PC12 cell proliferation
Gut microbiota; TBG096 20 mg/kg
  abundance of Firmicutes (decreased by HFD) and Bacteroidota (increased by HFD): reversed
Gut microbiota; TBG096 5 and 20 mg/kg
  abundance of Ligilactobacillus: improved

— paper PMC11943016, “TBG096 Ameliorates Memory Deficiency in AD Mouse Model via Promoting Neurogenesis and Regulation of Hsc70/HK2/PKM2/LAMP2A Signaling Pathway” (International Journal of Molecular Sciences, 2025)
